Laboratory results taken from patent publication US20040024024A1, “Aromatic sulfone hydroxamates and their use as protease inhibitors” (priority 2001, published 2004).
Each block holds one compound with its values, some of them ahead of it.

Legend:
Experiment in all cases: In vitro MMP inhibition, IC50 determination (fluorogenic substrate I)
Format in all cases: biochemical
Human recombinant MMP-14 = biological target: T1, Human recombinant MMP-14 (Homo sapiens, UniProt P50281)
T1 construct: The catalytic domain enzyme was expressed in E. coli inclusion bodies, solubilized in urea; made in house
Procedure, shortened: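 IC50 came from reduced fluorescence (ex 328 nm, em 415 nm) as inhibitor concentration rose, with 4 μM substrate I cleaved at Gly-Leu. Room-temperature incubation in pH 7.5 Tris buffer with 10 mM CaCl2; the E. coli-expressed, refolded MMP-14 catalytic domain was activated with trypsin or APMA.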

Human recombinant MMP-2 = biological target: T2, Human recombinant MMP-2 (Homo sapiens, UniProt P08253)
T2 construct: made in house; host or cells: MMP-2-transfected p2AHT2 cells
T2 sequence (P08253 110-660): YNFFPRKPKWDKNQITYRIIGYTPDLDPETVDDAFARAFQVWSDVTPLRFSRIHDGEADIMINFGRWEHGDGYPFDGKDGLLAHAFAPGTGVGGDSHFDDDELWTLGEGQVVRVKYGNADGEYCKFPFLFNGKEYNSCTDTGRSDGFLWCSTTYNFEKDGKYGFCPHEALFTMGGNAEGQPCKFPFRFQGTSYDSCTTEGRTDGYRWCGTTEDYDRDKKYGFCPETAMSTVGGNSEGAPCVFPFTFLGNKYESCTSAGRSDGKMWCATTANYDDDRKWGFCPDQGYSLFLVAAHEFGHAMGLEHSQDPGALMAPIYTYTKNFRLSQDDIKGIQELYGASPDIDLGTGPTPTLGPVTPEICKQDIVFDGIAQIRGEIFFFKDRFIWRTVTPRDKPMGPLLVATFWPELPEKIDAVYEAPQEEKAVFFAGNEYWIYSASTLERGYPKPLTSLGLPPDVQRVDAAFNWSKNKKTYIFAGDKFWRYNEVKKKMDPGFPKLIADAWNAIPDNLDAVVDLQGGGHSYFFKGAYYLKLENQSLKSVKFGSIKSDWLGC
Procedure, shortened: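 IC50 was derived from the concentration-dependent fall in fluorescence (ex 328, em 415 nm) on Gly-Leu cleavage of 4 μM MCA/Dpa-quenched substrate I. Assays ran at room temperature in pH 7.5 Tris/NaCl/CaCl2/Brij buffer with MMP-2 activated by trypsin or APMA; inhibitors were diluted from 1% DMSO stocks.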

Human recombinant MMP-9 = biological target: T3, Human recombinant MMP-9 (Homo sapiens, UniProt P14780)
T3 construct: made in house; host or cells: MMP-9-transfected HT1080 cells (spent media)
Procedure, shortened: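 Reduction in fluorescence (328 nm excitation, 415 nm emission) from cleavage of 4 μM quenched peptide substrate I, measured at room temperature against inhibitor concentration, gave IC50. Enzyme: trypsin- or APMA-activated MMP-9 purified from transfected HT1080 medium; buffer 100 mM Tris, 100 mM NaCl, 10 mM CaCl2, pH 7.5.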

Human recombinant MMP-13 = biological target: T4, Human recombinant MMP-13 (Homo sapiens, UniProt P45452)
T4 construct: made in house; host or cells: baculovirus / insect cells
Procedure, shortened: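 Fluorescence at 415 nm (excitation 328 nm) reports Gly-Leu cleavage of 4 μM quenched methoxycoumarin peptide substrate I. Human recombinant MMP-13, activated by trypsin or APMA, was incubated at room temperature with varied inhibitor concentrations in pH 7.5 Tris/NaCl/CaCl2 buffer; IC50 derived from reduced fluorescence.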

Human recombinant MMP-1 = biological target: T5, Human recombinant MMP-1 (Homo sapiens, UniProt P03956)
T5 construct: made in house; host or cells: MMP-1-transfected HT-1080 cells (spent media)
T5 sequence (P03956 100-469): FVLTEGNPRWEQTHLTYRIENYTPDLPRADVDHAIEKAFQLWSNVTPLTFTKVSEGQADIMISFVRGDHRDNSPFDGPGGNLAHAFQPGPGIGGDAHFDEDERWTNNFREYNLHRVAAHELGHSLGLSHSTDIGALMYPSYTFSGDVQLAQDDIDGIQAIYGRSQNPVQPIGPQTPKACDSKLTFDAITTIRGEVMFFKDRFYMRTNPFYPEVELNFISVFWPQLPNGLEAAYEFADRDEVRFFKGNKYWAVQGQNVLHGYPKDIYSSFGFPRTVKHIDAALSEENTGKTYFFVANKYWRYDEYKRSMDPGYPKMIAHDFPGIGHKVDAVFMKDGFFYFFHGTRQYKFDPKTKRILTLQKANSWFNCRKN
Procedure, shortened: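 Inhibitor dilutions were made in 100 mM Tris-HCl/100 mM NaCl/10 mM CaCl2 buffer, pH 7.5, and incubated at room temperature with activated proenzyme (from transfected HT-1080 media; APMA or trypsin) and 4 μM quenched methoxycoumarin peptide substrate. Loss of 415 nm fluorescence (328 nm excitation) against concentration gave IC50.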

[1] = substrate (I) 4 μM, room temperature, values not in parenthesis
[2] = value outside parentheses (Ki in parenthesis)

T3 sequence (P14780 107-707 limits assumed): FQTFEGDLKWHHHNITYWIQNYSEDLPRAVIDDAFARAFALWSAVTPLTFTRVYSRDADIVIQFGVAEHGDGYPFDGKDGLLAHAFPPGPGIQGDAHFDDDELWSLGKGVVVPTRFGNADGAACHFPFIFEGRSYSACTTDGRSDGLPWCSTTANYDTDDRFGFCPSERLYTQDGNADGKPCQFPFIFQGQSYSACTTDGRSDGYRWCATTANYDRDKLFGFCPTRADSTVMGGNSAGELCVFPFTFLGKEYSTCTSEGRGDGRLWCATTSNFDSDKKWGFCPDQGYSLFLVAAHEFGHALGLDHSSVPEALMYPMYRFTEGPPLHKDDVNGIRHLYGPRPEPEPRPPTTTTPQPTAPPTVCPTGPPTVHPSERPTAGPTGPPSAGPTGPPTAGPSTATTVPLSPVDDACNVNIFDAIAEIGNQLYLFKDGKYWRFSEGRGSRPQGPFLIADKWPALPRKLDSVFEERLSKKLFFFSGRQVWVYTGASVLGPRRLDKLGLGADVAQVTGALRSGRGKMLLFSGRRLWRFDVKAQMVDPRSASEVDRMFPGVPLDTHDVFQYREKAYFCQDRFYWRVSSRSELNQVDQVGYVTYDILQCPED

SMILES: CCCCCc1ccc(-c2nnc(CCCOc3ccc(S(=O)(=O)C4(C(=O)NO)CCOCC4)cc3)o2)cc1 [Example 316]
IC50 (Human recombinant MMP-14; [2]): > 10 µM
IC50 (Human recombinant MMP-2; [2]): 2.84 µM
IC50 (Human recombinant MMP-9; [2]): 0.692 µM
IC50 (Human recombinant MMP-13; [2]): 0.0136 µM
IC50 (Human recombinant MMP-1; [2]): 2.68 µM

SMILES: O=C(Cc1ccsc1)NCCOc1ccc(S(=O)(=O)C2(C(=O)NO)CCOCC2)cc1 [Example 601]
IC50 (Human recombinant MMP-14; value outside parentheses): 2.06 µM
IC50 (Human recombinant MMP-2; value outside parentheses): 0.0019 µM
IC50 (Human recombinant MMP-9; value outside parentheses): 0.0426 µM
IC50 (Human recombinant MMP-13; value outside parentheses): 0.0013 µM
IC50 (Human recombinant MMP-1; value outside parentheses): 4.92 µM

SMILES: Cc1ccc2c(c1)CCCN2CCCCCOc1ccc(S(=O)(=O)C2(C(=O)NO)CCOCC2)cc1 [Example 415]
IC50 (Human recombinant MMP-14; [2]): > 10 µM
IC50 (Human recombinant MMP-2; [2]): 0.051 µM
IC50 (Human recombinant MMP-9; [2]): 1.78 µM
IC50 (Human recombinant MMP-13; [2]): 0.015 µM
IC50 (Human recombinant MMP-1; [2]): > 10 µM

SMILES: O=C(NO)C1(S(=O)(=O)c2ccc(OCCCc3nnc(-c4ccc(-c5ccccc5)cc4)o3)cc2)CCOCC1 [Example 257]
IC50 (Human recombinant MMP-14; value outside parenthesis): > 10 µM
IC50 (Human recombinant MMP-2; value outside parenthesis): 0.174 µM
IC50 (Human recombinant MMP-9; value outside parenthesis): 6.23 µM
IC50 (Human recombinant MMP-13; value outside parenthesis): 0.0005 µM
IC50 (Human recombinant MMP-1; value outside parenthesis): > 10 µM

SMILES: COc1ccc(C(=O)CCCc2ccc(S(=O)(=O)C3(C(=O)NO)CCOCC3)cc2)cc1 [Example 231]
IC50 (Human recombinant MMP-14; value outside parenthesis): 0.642 µM
IC50 (Human recombinant MMP-2; value outside parenthesis): 0.0016 µM
IC50 (Human recombinant MMP-9; value outside parenthesis): 0.0102 µM
IC50 (Human recombinant MMP-13; value outside parenthesis): 0.0002 µM
IC50 (Human recombinant MMP-1; value outside parenthesis): > 10 µM

SMILES: COc1ccc(C(=O)C(O)CCOc2ccc(S(=O)(=O)C3(C(=O)NO)CCOCC3)cc2)cc1 (stereo not shown) [Example 184]
IC50 (Human recombinant MMP-14; value outside parenthesis): 2.72 µM
IC50 (Human recombinant MMP-2; value outside parenthesis): 0.0304 µM
IC50 (Human recombinant MMP-9; value outside parenthesis): 0.104 µM
IC50 (Human recombinant MMP-13; value outside parenthesis): 0.0039 µM
IC50 (Human recombinant MMP-1; value outside parenthesis): 1.53 µM

SMILES: O=C(CCCOc1ccc(S(=O)(=O)C2(C(=O)NO)CCOCC2)cc1)c1cccc2ccccc12 [Example 352]
IC50 (Human recombinant MMP-14; [2]): 6.24 µM
IC50 (Human recombinant MMP-2; [2]): 0.0336 µM
IC50 (Human recombinant MMP-9; [2]): 3.6 µM
IC50 (Human recombinant MMP-13; [2]): 0.002 µM
IC50 (Human recombinant MMP-1; [2]): > 10 µM

Second part, the compound after the results:

IC50 (Human recombinant MMP-14; [1]): > 10 µM
IC50 (Human recombinant MMP-2; [1]): 0.45 µM
IC50 (Human recombinant MMP-9; [1]): > 10 µM
IC50 (Human recombinant MMP-13; [1]): 0.0035 µM
IC50 (Human recombinant MMP-1; [1]): > 10 µM
SMILES: O=C1c2ccccc2C(=O)N1CCCOc1ccc(S(=O)(=O)C2(C(=O)NO)CCOCC2)cc1 [Example 21, 4-[[4-[3-(1,3-dihydro-1,3-dioxo2H-isoindol-2-yl)propoxy]phenyl]sulfonyl]tetrahydro-N-hydroxy-2H-pyran-4-carboxamide]

IC50 (Human recombinant MMP-14; value outside parenthesis): > 10 µM
IC50 (Human recombinant MMP-2; value outside parenthesis): 0.0494 µM
IC50 (Human recombinant MMP-9; value outside parenthesis): 2.1 µM
IC50 (Human recombinant MMP-13; value outside parenthesis): 0.0005 µM
IC50 (Human recombinant MMP-1; value outside parenthesis): 9.31 µM
SMILES: O=C(NO)C1(S(=O)(=O)c2ccc(OCCCc3nc(-c4ccc(Cl)cc4)no3)cc2)CCOCC1 [Example 243]

IC50 (Human recombinant MMP-14; value outside parentheses): > 10 µM
IC50 (Human recombinant MMP-2; value outside parentheses): 0.0241 µM
IC50 (Human recombinant MMP-9; value outside parentheses): 0.0699 µM
IC50 (Human recombinant MMP-13; value outside parentheses): 0.0284 µM
IC50 (Human recombinant MMP-1; value outside parentheses): > 10 µM
SMILES: O=C(NO)C1(S(=O)(=O)c2ccc(OCCOCC3CC3)cc2)CCOCC1 [Example 655]

IC50 (Human recombinant MMP-14; [2]): > 10 µM
IC50 (Human recombinant MMP-2; [2]): 0.135 µM
IC50 (Human recombinant MMP-9; [2]): 0.139 µM
IC50 (Human recombinant MMP-13; [2]): 0.0045 µM
IC50 (Human recombinant MMP-1; [2]): 8.13 µM
SMILES: N#Cc1ccc(N2CCN(CCCOc3ccc(S(=O)(=O)C4(C(=O)NO)CCOCC4)cc3)C2=O)cc1 [Example 307]

IC50 (Human recombinant MMP-14; value outside parentheses): > 10 µM
IC50 (Human recombinant MMP-2; value outside parentheses): 0.0898 µM
IC50 (Human recombinant MMP-9; value outside parentheses): 0.154 µM
IC50 (Human recombinant MMP-13; value outside parentheses): 0.0242 µM
IC50 (Human recombinant MMP-1; value outside parentheses): > 10 µM
SMILES: O=C(NO)C1(S(=O)(=O)c2ccc(OCCOCc3ccccn3)cc2)CCOCC1 [Example 515]

IC50 (Human recombinant MMP-14; value outside parenthesis): > 10 µM
IC50 (Human recombinant MMP-2; value outside parenthesis): 0.239 µM
IC50 (Human recombinant MMP-9; value outside parenthesis): 5.99 µM
IC50 (Human recombinant MMP-13; value outside parenthesis): 0.0025 µM
IC50 (Human recombinant MMP-1; value outside parenthesis): > 10 µM
SMILES: O=C1CN(c2ccc(OC(F)(F)F)cc2)C(=O)N1CCCOc1ccc(S(=O)(=O)C2(C(=O)NO)CCOCC2)cc1 [Example 144]

IC50 (Human recombinant MMP-14; value outside parentheses): 0.574 µM
IC50 (Human recombinant MMP-2; value outside parentheses): 0.0035 µM
IC50 (Human recombinant MMP-9; value outside parentheses): 0.0673 µM
IC50 (Human recombinant MMP-13; value outside parentheses): 0.0007 µM
IC50 (Human recombinant MMP-1; value outside parentheses): 3.55 µM
SMILES: O=C(CCCOc1ccc(S(=O)(=O)C2(C(=O)NO)CCOCC2)cc1)c1ccccc1 [Example 492]
